Laboratory results from US5879683A, “Antibacterial agent containing tea extract or active fraction thereof and β-lactam antibiotic” (priority 1994, dated 1999).
Where “and” joins values, the source holds several entries; their conditions need not be identical. Equal values may be shown once. Entries after “also recorded” stand apart in the source; their conditions may differ.

Tests used:
Format in all cases: cell-based, Staphylococcus aureus
[1] = system: S. aureus USA#18; test: Activity II bioassay (anti-PBP2' action), agar well diffusion with methicillin 10 μg/ml; conditions: for activity II: pure compound at 1 mg/ml
Excerpt: (§1) Activities I (inhibitory/killing actions against bacteria), II (anti-PBP2' action) and III (action against β-lactamase) were quantitated by bioassay, using large plates (14 cm diameter circular, or 25×25 cm square) containing IsoSensitest agar (Unipath CM 471) to a depth of about 4 mm. surface-seeded with S. aureus. Assay strains and additions to agar varied according to the activity being assayed (Table 4).
(§2) 6 mm wells were cut into the agar and filled with appropriate dilutions (in duplicate) of solutions of the material to be assayed. Following overnight incubation, diameters of inhibition zones were measured, and plots made of (log concentration) vs zone diameter. MNIC was calculated by extrapolating the regression line to zone diameter=6 mm; it was expressed ether as a concentration (μg/ml) or an activity (reciprocal of concentration in mg/ml).

[2] = system: S. aureus Oxford; test: Activity I bioassay (inhibitory/killing action), agar well diffusion; conditions: pure compound at 1 mg/ml
Excerpt: as §1, §2

[3] = system: MSSA; test: MIC of benzylpenicillin in presence and absence of tea extract, MSSA (activity III)
Method: (§3) Strains were grown overnight at 37° C. in IsoSensitest™ broth (ISB, Unipath CM 473), and 1 μl amounts (c. 10^6 colony forming units (cfu) were inoculated on to six series of plates of IsoSensitest™ agar containing doubling dilutions of methicillin (1024- 1 μg/ml) alone and in the presence of tea extract in various sub-inhibitory concentrations, viz final dilutions of 1/40, 1/70, 1/100, 1/200 and 1/300.
(§4) Plates were incubated at 30° for 48 h. The minimum inhibitory concentration (MIC) of antibiotic was calculated for each sample, as a measure of activity II.
The 40 strains tested in Examples 1 and 2 above, together with 9 strains of methicillin-sensitive Staph. aureus (MSSA) were tested for their resistance to benzylpenicillin in the presence or absence of tea extract, with a view to measuring activity III. The procedures used were those described in Example 1, except that benzylpenicillin replaced methicillin. Both MSSA and MRSA have natural resistance to benzylpenicillin through the production of β-lactamase.

[4] = system: high level MRSA (20 strains of MRSA); test: MIC of methicillin alone and in presence of tea extract, agar dilution, high level MRSA (activity II); conditions: strain no. is first number of line
Method: A 2% extract of crushed leaf Japanese "Sencha" tea was made in boiling water, and filtered through a Millipore filter. This extract contains about 14.7 mg/ml of tea.
Sodium methicillin (SmithKline Beecham) and vancomycin hydrochloride (Lilly Industries) were Laboratory Reference preparation.
IsoSensitest agar (Unipath CM 471) was supplemented with 20 g NaCl/L.
as §3, §4

[5] = system: low level MRSA; test: MIC of methicillin alone and in presence of tea extract, low level MRSA (activity II); conditions: strain no. is first number of line
Method: as §3, §4
A further 20 strains of low level MRSA were tested for activity II according to the procedures described in Example 1.

[6] = system: MRSA; test: Methicillin MIC in presence of sub-inhibitory vancomycin (control); conditions: sub-inhibitory vancomycin in place of tea
Method: A similar experiment was done using methicillin diluted in a series of sub-inhibitory concentrations of vancomycin, namely 0.5, 0.28, 0.2, 0.1 and 0.07 μg/l.
as §4

| SMILES | activity II, pure compounds [1] | activity I [2] | activity II [1] | further results |
| --- | --- | --- | --- | --- |
| Oc1cc(O)c2c(c1)O[C@H](c1cc(O)c(O)c(O)c1)[C@H](O)C2 [EGC, Epigallocatechin] | no activity II |  |  |  |
| O=C(O[C@@H]1Cc2c(O)cc(O)cc2O[C@@H]1c1cc(O)c(O)c(O)c1)c1cc(O)c(O)c(O)c1 [EGCG, epigallocatechin gallate] | no activity II |  |  |  |
| Oc1cc(O)c2c(c1)O[C@H](c1ccc(O)c(O)c1)[C@H](O)C2 [Epicatechin, epicatechin] |  | no evidence of activity I or II | no evidence of activity I or II |  |
| O=c1c(O)c(-c2ccc(O)c(O)c2)oc2cc(O)cc(O)c12 [Quercitin, quercitin] | no activity II |  |  |  |
| CC1(C)S[C@@H]2[C@H](NC(=O)Cc3ccccc3)C(=O)N2[C@H]1C(=O)O [benzylpenicillin] |  |  |  | MIC ([3]; Staphylococcus aureus, 48 h, read-out: MIC of benzylpenicillin, alone, MSSA, strain no. is first number of line): > 512 µg/mL; MIC of benzylpenicillin, alone ([3]; strain no. is first number of line): 512 µg/mL and 256 µg/mL |
| O=C(/C=C/c1ccc(O)c(O)c1)O[C@@H]1C[C@](O)(C(=O)O)C[C@@H](O)[C@H]1O [chlorogenic acid] |  | no evidence of activity I or II | no evidence of activity I or II |  |
| O=C(O)c1cc(O)c(O)c(O)c1 [gallic acid] |  | no evidence of activity I or II | no evidence of activity I or II |  |
| O=c1c(O)c(-c2ccc(O)cc2)oc2cc(O)cc(O)c12 [kaempferol] | no activity II |  |  |  |
| COc1cccc(OC)c1C(=O)N[C@@H]1C(=O)N2[C@@H]1SC(C)(C)[C@@H]2C(=O)O [methicillin] |  |  |  | MIC of methicillin, alone ([4]; no tea): 512 µg/mL; MIC of methicillin, +T/300 ([4]; tea extract 1/300): 512 µg/mL; MIC of methicillin, alone [5]: 32 µg/mL and 64 µg/mL |
| Cn1cnc2c1c(=O)[nH]c(=O)n2C [theobromine] |  | no evidence of activity I or II | no evidence of activity I or II |  |
| Cn1c(=O)c2[nH]cnc2n(C)c1=O [theophylline] |  | no evidence of activity I or II | no evidence of activity I or II |  |
| CN[C@H](CC(C)C)C(=O)N[C@H]1C(=O)N[C@@H](CC(N)=O)C(=O)N[C@H]2C(=O)N[C@H]3C(=O)N[C@H](C(=O)N[C@H](C(=O)O)c4cc(O)cc(O)c4-c4cc3ccc4O)[C@H](O)c3ccc(c(Cl)c3)Oc3cc2cc(c3O[C@@H]2O[C@H](CO)[C@@H](O)[C@H](O)[C@H]2O[C@H]2C[C@](C)(N)[C@H](O)[C@H](C)O2)Oc2ccc(cc2Cl)[C@H]1O [vancomycin] |  |  |  | effect of vancomycin on methicillin MIC / synergy [6]: no synergistic effect whatever; also recorded: no reduction in methicillin MIC |
